The values that follow come from US9833492B2, “Combinations of a caspase inhibitor and an antiviral agent” (INSTITUT NATIONAL DE LA SANTE ET DE LA RECHERCHE MEDICALE …, priority 2007, dated 2017).

The test system of series [1] is cells stimulated by anti-CD3. It is filed as cell-based. The conditions noted are these: human, 1 day, 50 μM. On the procedure:
FIG. 14. Analysis of the fall in the mitochondrial transmembrane potential (% Δφm low) by flow cytometry starting from cells stimulated by 1 μg/ml of anti-CD-3 in the presence or absence of different HIV antiproteases and of QVD-OPH.
(§1) In order to evaluate the change in the transmembrane potential of the inner mitochondrial membrane, the cells were labelled with a fluorescent probe DIOC6 (Molecular Probes, Invitrogen), at a concentration of 40 nM, and incubated for 15 minutes at 37° C. Viral replication was evaluated by internal labelling of the p24 viral protein using an anti-p24-PE antibody (KC-57, Coulter Corp, Beckman).
The cell toxicity was evaluated by analysis of the fall in the mitochondrial transmembrane potential (% Δφm low) using the probe DIOC6, by flow cytometry. The cells stimulated by anti-CD3 were analyzed in the same way on the day following activation.

Series [2] deals with lymphocytes stimulated by 1 μg/ml of anti-CD-3. The series is described as follows: lymphocyte proliferation test with CFSE. The class given is cell-based, human. Here is the method:
FIG. 13. Analysis by flow cytometry of lymphocyte proliferation after 4 and 5 days' stimulation by 1 μg/ml of anti-CD-3, in the presence or absence of HIV antiproteases or of QVD-OPH.
The PBMCs are incubated in the presence of 1 μM of CFSE for 7 minutes at 37° C. The cells are taken up at 1·10^6/ml and then placed in culture and activated by an anti-CD3 at 1 μg/ml (Immunotech).
A lymphocyte proliferation study was conducted with the fluorescent probe CFSE, which allows cell division to be monitored.

Series [3] relates to primary strains of the HIV-1 virus. The series is described as follows: replication of primary HIV-1 strains in CD4+ T lymphocytes (p24). The class given is cell-based. The settings on record: 1 μM. Here is the method:
FIG. 7: Graphic representation showing the effect of Q-VD-OPh on primary HIV-1 strains. In all cases (A, B and C), the CD4+ T lymphocytes were stimulated with concanavalin A and IL2 (stimulation being carried out before or during administration of Q-VD-OPh), […], immediately after infection and then 36 hours (d3) and 96 hours (d4) post-infection. A. Analysis by flow cytometry of viral replication in CD4+ T lymphocytes infected with the HIV-1Lai virus or with the serum of a chronic HIV+ patient (strain with X4/R5 dual tropism) and then cultivated in the absence or presence (+Q-VD) of Q-VD-OPh. The percentage of CD4+ cells infected by HIV was determined after intracellular labelling of the p24 viral antigen on the 5th day post-infection in the case of the HIV-Lai virus and on the 6th day post-infection in the case of the serum. […] B. Quantification of viral replication (on the left) and of cell death by measurement of mitochondrial depolarization (on the right) in CD4+ T lymphocytes infected with the serum of the chronic HIV+ patient. […]
The CD4^+ cells were incubated for 2 hours at 37° C. in the presence of 10 ng/ml of HIV-1 virus of strain Lai or 50 ng/ml of primary strains of the HIV-1 virus. […] The HIV p24 antigen, the control for the viral load, was measured in the cell culture supernatants by an ELISA test (Abbott). […]

The test system of the next series is viral strain HIV-Lai. In words: Example 2: internal p24 viral protein by flow cytometry with different caspase inhibitors. The class given is cell-based, HIV-1. The settings on record: 10 μM. On the procedure: (§2) FIG. 11. Analysis by flow cytometry of the internal viral protein p24 (A) and of the fall in the mitochondrial transmembrane potential (% Δφm low; B) on the 5th (d5) and 7th (d7) day post-infection in primary CD4+ T cells infected by the strain HIV-Lai, after stimulation by Concanavalin A and IL-2 and in the presence or absence of 10 μM of different caspase inhibitors.
as §1
(§3) Primary CD4 T cells were infected by the viral strain HIV-Lai and then stimulated by ConA/IL-2 in the presence or absence of Q-VD-OPH, Q-DEVD-OPH (casp-3 inhibitor), Q-LEDH-OPH (caspase-9 inhibitor) and Q-IETD-OPH (caspase-8 inhibitor) at 10 μM for each of the inhibitors. On days 5 and 7 post-infection, the internal p24 viral protein is measured by flow cytometry after fixation and permeabilization of the CD4 T cells. […] Death was evaluated by analysis of the fall in the mitochondrial transmembrane potential (% Δφm low) using the probe DIOC6 by flow cytometry (FIG. 11B). […]
(A flow cytometer gives signals particle by particle.)

The test system of the next series is HIV viral proteins. The series is described as follows: Example 2: immunoblot of HIV viral proteins in infected primary CD4 T cells. It is filed as cell-based, HIV-1. The conditions noted are these: versus control cultures. Here is the method: FIG. 12. Analysis by immunoblot of the quantity of HIV viral proteins produced from extracts of primary CD4 T cells infected by the strain HIV-Lai in the presence or absence of different caspase inhibitors.
20 μg extracts of total lysate prepared with 1% NP40 were boiled for 5 minutes in Laemmli buffer containing 2% SDS and 10% 2-β-mercaptoethanol, then deposited on 10-20% polyacrylamide gradient gels (Invitrogen). After transfer of the proteins, the immunoblots were incubated with the following primary antibodies: anticaspase-3, anticaspase-8 and anticaspase-9 (Cell Signaling), anti-PARP (Pharmingen) and anti-Tubulin (Santa-Cruz).
Primary CD4 T cells were infected by the viral strain HIV-Lai and then stimulated by ConA/IL-2 in the presence or absence of Q-VD-OPH, Q-DEVD-OPH (casp-3 inhibitor), Q-LEDH-OPH (caspase-9 inhibitor) and Q-IETD-OPH (caspase-8 inhibitor) at 10 μM for each of the inhibitors. On days 5 and 7 post-infection, the internal p24 viral protein is measured by flow cytometry after fixation and permeabilization of the CD4 T cells. […] Death was evaluated by analysis of the fall in the mitochondrial transmembrane potential (% Δφm low) using the probe DIOC6 by flow cytometry (FIG. 11B). […] Extracts of primary CD4 T cells infected in the presence or absence of the different caspase inhibitors as well as QVD-OPH were analyzed by immunoblot for the HIV viral proteins (FIG. 12).
A general note: In western blotting, separated proteins are transferred to a membrane and probed.

Series [4] relates to Primary CD4 T cells infected by the viral strain HIV-Lai. The series is described as follows: Example 2: death by fall in mitochondrial transmembrane potential in infected primary CD4 T cells. It is filed as cell-based, human. The settings on record: 10 μM. Here is the method: as §2, §1, §3
The next series has as its system HIV-1 virus. The settings on record: cited from earlier work.
The test system of a further series is cells infected by HIV. The settings on record: cells infected by HIV (Petit et al., 2002), cited from earlier work.
For another series, the system named is apoptosis. The settings on record: Caserta et al., 2003; cited from earlier work.
Series [5] concerns Cytochrome c, Smac/Diablo and Endonuclease G in primary CD4+ T cells infected with HIV-Lai. In words: immunoblot of release of apoptogenic mitochondrial factors after subcellular fractionation. The class given is cell-based, human. The settings on record: 10 μM, day 5 after infection. Here is the method:
FIG. 3: Immunoblot (Western blot) showing the effect of Q-VD-OPh on mitochondrial damage resulting from viral replication. Primary CD4+ T cells were infected with HIV-Lai and stimulated with a ConA/IL-2 cocktail and then treated or not treated with 10 μM of Q-VD-OPh (QVD) and/or 10 μM of pepstatin A (PA) immediately after stimulation and then 36 hours (day 3) and 96 hours (day 4) after infection. On the 5th day post-infection, the cells were fractionated into two parts: the membrane fraction and the cytosol fraction. The relocalization of the apoptogenic factors Cytochrome c (Cyt c), Smac/Diablo and Endonuclease G (EndoG) was then evaluated by immunotransfer (Western blot). The proteins Cytochrome c, Smac/Diablo and EndoG were detected using the antibodies indicated above. The proteins Cox IV and actin detected by means of the anti-subunit IV antibodies (clone 1068 Molecular Probe) and anti-actin antibodies (SIGMA), respectively, were used as the control for the fractionation procedure and as the control for the protein load of the gel, respectively. […]
The cytosol and mitochondrial fractions were obtained by the subcellular fractionation technique based on selective permeabilization by digitonin according to Foghsgaard et al. {Foghsgaard, 2001}. […] The protein concentration of the cytosol and mitochondrial fractions was determined by the bicinchoninic acid (BCA) method (Bio-Rad). […]

Entries after “also recorded” stand apart in the source; their conditions may differ. Where two headings read alike, the source gives them in different places. Where a SMILES comes first, the peptide text is derived from it. [ ]: non-standard residue; d: D form. The star is where a group is joined. Sta = CC(C)C[C@H](N)[C@@H](O)CC(=O)O; Isovaleryl = CC(C)CC(=O)*; Cbz = O=C(OCc1ccccc1)*; CH2F = FC*

Regarding `CC(C)(C)NC(=O)[C@@H]1CN(Cc2cccnc2)CCN1C[C@@H](O)C[C@@H](Cc1ccccc1)C(=O)N[C@H]1c2ccccc2C[C@H]1O` [Indinavir], the “fall in Δφm” value in series [1] is on record as 70-80%. In addition, in series [2] (50 μM, after 4 and 5 days' stimulation), the “lymphocyte proliferation (CFSE)” value is given as “block the proliferation”.

In the case of `O=c1[nH]cnc2c1ncn2[C@H]1CC[C@@H](CO)O1` [ddl], in [3], the “replication of five primary HIV-1 isolates of R5 tropism” value is “strong inhibition of viral replication”.

Regarding `CC(C)(C)NC(=O)[C@@H]1C[C@@H]2CCCC[C@@H]2CN1C[C@@H](O)[C@H](Cc1ccccc1)NC(=O)[C@H](CC(N)=O)NC(=O)c1ccc2ccccc2n1` [Saquinavir], the “fall in Δφm” value in [1] is 70-80%. The “lymphocyte proliferation (CFSE)” value in series [2] is “block the proliferation”.

For the compound Q-DEVD-OPH, the “inhibition of viral replication (p24)” value is on record as “weak effect” in the series with viral strain HIV-Lai (d5) and “absence of protection” in the series with viral strain HIV-Lai (d7). For the same compound, the “quantity of viral proteins produced” value in the series on HIV viral proteins is listed as “slightly lower”. Moreover, the “death, fall in the mitochondrial transmembrane potential (% Δφm low)” value in series [4] is reported as “absence of effect”.

Take `CC(C)[C@H](NC(=O)OCc1ccccc1)C(=O)N[C@@H](C)C(=O)N[C@@H](CC(=O)O)C(=O)CF` [z-VAD-fmk, N-benzyloxycarbonyl-Val-Ala-Asp-fluoromethyl ketone] (Cbz-Val-Ala-Asp-CH2F): the “effect on viral replication” value in the series with HIV-1 virus (T-leukaemia cells (CEM) or PBMC exposed to HIV-1 (Chinnaiyan et al., 1997)) is recorded as “increasing viral replication”. In addition, the endogenous viral replication result in the series on HIV-1 virus (activated PBMCs from HIV-1-positive asymptomatic patients (Chinnaiyan et al., 1997)) is “stimulating endogenous viral replication”. Also, the “inhibition of viral replication” value in the series with HIV-1 virus (in vitro (Gandhi et al., 1998; Petit et al., 2002)) is listed as “nor does it inhibit viral replication; also recorded: did not enable viral replication to be inhibited”. Also, the “apoptotic phenotype (condensation and fragmentation of the nuclear chromatin)” value with cells infected by HIV is on record as “prevents the apoptotic phenotype”. Also, the “prevention of mitochondrial depolarization, apoptosis or cell death” value with cells infected by HIV is on record as “does not inhibit apoptosis”; with cells infected by HIV (listed as zVAD-kmk), “does not prevent either mitochondrial depolarization or cell death”. In addition, the inhibition of apoptosis result in the series on apoptosis is “inhibits apoptosis in a dose-dependent manner”.

Turning to `COC(=O)CC(NC(=O)OC(C)(C)C)C(=O)CF` [Boc-D-fmk, tert-butyloxycarbonyl-Asp(O-methyl)-fluoromethyl ketone], in the series with apoptosis, the inhibition of apoptosis result is listed as “inhibits apoptosis in a dose-dependent manner”.

Regarding `CC(C)CC(=O)N[C@H](C(=O)N[C@H](C(=O)N[C@@H](CC(C)C)[C@@H](O)CC(=O)N[C@@H](C)C(=O)N[C@@H](CC(C)C)[C@@H](O)CC(=O)O)C(C)C)C(C)C` [pepstatin A] (Isovaleryl-VV[Sta]A[Sta]-OH), in series [5], the “mitochondrial damage: apoptogenic factors Cytochrome C, Smac/Diablo and EndoG in the cytosol fraction” value is recorded as “no effect”.
